Test results as given in EP4692089A1, “NITROGEN-CONTAINING HETEROCYCLIC COMPOUND AS AAK1 INHIBITOR” (Alicorn Pharmaceutical Co., Ltd., priority 2023, dated 2024).
Where “and” joins values, the source holds several entries; their conditions need not be identical. Identical values can stand only once.

Assays:
[1] = target: T1, AAK1 (Homo sapiens, UniProt Q2M2I8); experiment: Effect on AP2M1 phosphorylation in 293T cells co-transfected with AAK1 and AP2M1 (Western blot, anti-p-AP2M1); type: cell-based; settings: p-AP2M1 level, incubated 3 h
T1 construct: HA; expressed in transfected cells; host or cells: 293T cells
T1 sequence (Q2M2I8 whole entry): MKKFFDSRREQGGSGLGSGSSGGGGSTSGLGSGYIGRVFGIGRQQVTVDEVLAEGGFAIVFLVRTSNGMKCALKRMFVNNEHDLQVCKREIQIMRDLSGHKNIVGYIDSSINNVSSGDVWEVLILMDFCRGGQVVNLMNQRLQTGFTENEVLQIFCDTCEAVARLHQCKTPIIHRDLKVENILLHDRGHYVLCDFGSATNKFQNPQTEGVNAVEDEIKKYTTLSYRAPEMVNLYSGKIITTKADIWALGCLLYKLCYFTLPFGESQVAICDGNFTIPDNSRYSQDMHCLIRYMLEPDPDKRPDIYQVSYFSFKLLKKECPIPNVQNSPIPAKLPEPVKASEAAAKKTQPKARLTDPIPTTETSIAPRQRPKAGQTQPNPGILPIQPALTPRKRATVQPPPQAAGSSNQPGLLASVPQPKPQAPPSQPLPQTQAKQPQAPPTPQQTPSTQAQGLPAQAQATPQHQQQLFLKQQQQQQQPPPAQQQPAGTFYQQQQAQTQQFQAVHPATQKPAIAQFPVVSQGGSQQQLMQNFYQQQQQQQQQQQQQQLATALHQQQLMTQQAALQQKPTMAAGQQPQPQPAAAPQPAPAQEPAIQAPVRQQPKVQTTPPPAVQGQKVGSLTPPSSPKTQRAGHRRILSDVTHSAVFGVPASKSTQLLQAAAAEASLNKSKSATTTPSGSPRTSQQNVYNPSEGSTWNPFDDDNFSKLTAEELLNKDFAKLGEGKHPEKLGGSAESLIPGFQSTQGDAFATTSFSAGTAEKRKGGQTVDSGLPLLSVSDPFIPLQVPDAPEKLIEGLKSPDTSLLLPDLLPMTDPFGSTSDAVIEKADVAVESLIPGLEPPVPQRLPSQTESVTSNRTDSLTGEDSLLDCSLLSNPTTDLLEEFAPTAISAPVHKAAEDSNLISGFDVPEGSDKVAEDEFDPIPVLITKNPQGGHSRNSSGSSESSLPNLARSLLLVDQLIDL
Source text: Experimental objective: The objective of this test example is to determine the effect of compounds on AP2M1 phosphorylation in cells.
Background principle: Adaptor-associated kinase 1 (AAK1), also known as AP2-associated kinase 1, is a 104 kDa serine/threonine kinase. AAK1 interacts with the adaptor protein 2 (AP2) complex and phosphorylates the threonine residue in the micro-subunit of AP2 (AP2M1), thereby increasing its binding affinity for certain tyrosine-based or dileucine-based sorting signals of some membrane receptors. The inhibitory effect of compounds on AAK1 was evaluated by detecting the phosphorylation level of AP2M1 in cells, so as to screen candidate compounds.
On the second day, each T25 flask was co-transfected with 16 µg of plasmids (1 µg of AAK1/HA/pIRES and 15 µg of Flag/AP2MI/pcDNA) using a Lip2000 transfection reagent. On the third day, the cells were digested and resuspended, centrifuged at 1000 rpm for 5 minutes, and then seeded into 24-well plates at 450 µl per well (2 × 10^5 cells/well). Gradient dilutions of the compounds to be tested were prepared, 50 µl was added to each well, mixed thoroughly, and incubated at 37°C for 3 h. DMSO was set as a control, and cells without plasmid transfection were set as a blank control. After incubation, the cells were collected and washed twice with PBS. The cells were lysed on ice for 30 minutes using a cell lysis buffer containing the protease inhibitor PMSF. The concentration of protein samples was determined using a BCA kit. Protein electrophoresis: The voltage for the stacking gel was set at 60 V, and that for the separating gel was set at 120 V. After electrophoresis, electrotransfer was initiated. Electrotransfer conditions were set at 250 mA for 2 h. Blocking with 5% BSA was performed for 1 h. A specific primary antibody, anti-p-AP2M1, was added, and incubation was carried out overnight at 4°C on a shaker. Washing with TBST was conducted 4 times, with 2.5 minutes each time. A secondary antibody was incubated on a shaker at room temperature for 1 h. Washing with TBST was conducted 4 times, with 2.5 minutes each time. ECL was used for development to detect the expression level of p-AP2M1. Western blot bands were processed and converted using Image J and GraphPad software to calculate IC50.
IC50 (half maximal inhibitory concentration) refers to the half-inhibitory concentration of the measured antagonist. It can indicate the concentration of a certain drug or substance (inhibitor) that achieves half of the inhibition effect on certain biological processes (or certain substances involved in these processes, such as enzymes, cellular receptors, or microorganisms).

[2] = Pharmacokinetic test in SD rats
Method: Experimental objective: The objective of this experimental example is to test the pharmacokinetic profile of compounds in SD rats.
Route of administration: The animals were weighed before administration, and the dose was calculated based on their body weight. Administration was performed via intravenous injection and oral gavage.
Blood collection time points: After administration, for IV group: 0.083 h, 0.25 h, 0.5 h, 1 h, 2 h, 4 h, 8 h, and 24 h; for PO group: 0.25 h, 0.5 h, 1 h, 2 h, 4 h, 6 h, 8 h, and 24 h. Blood was collected via the jugular vein, with approximately 0.2 mL collected for each sample. The blood samples were anticoagulated with K2-EDTA and placed on ice after collection.
Plasma sample processing: After collection, the blood samples were placed on ice and centrifuged within 1 hour to separate plasma (centrifugation conditions: 6800g, 6 minutes, 2-8°C). The plasma samples were stored in a -80°C refrigerator before analysis.
Result analysis: Pharmacokinetic parameters were calculated using Phoenix WinNonlin 7.0 based on the plasma concentration data at different time points.

[3] = test system: streptozotocin (STZ)-induced peripheral neuropathic pain (DPNP) in diabetic rat models; experiment: Efficacy test in diabetic peripheral neuropathic pain (DPNP), Von Frey pain threshold; type: in vivo, SD rats; settings: for MWT (g) After modeling: before administration; for MWT (g) 2h: 2 h after administration; for MWT (g) 4 h: 4 h after administration; for MWT (g) 5 h: 5 h after administration; for MWT (g) 6h: 6 h after administration; for duration of analgesia: time after administration
Method: Experimental methods: After the adaptation period, the rats were tested for baseline plantar pain threshold using the Von Frey (Up-Down method) before modeling. Subsequently, except for the blank control group, all other rats were fasted for 16 hours with free access to water and then intraperitoneally injected with streptozotocin for modeling (65 mg/kg; 2 mL/kg). One week after modeling, blood was collected from the tail tip to detect blood glucose levels after a 4-hour fast. Rats with blood glucose levels higher than 16.7 mmol/L were considered diabetic.

[4] = Blood-brain distribution in DPNP model rats; settings: SD, rat; for concentration at 6 h: oral; for Kp at 6 h: brain/plasma, po
Method: Experimental objective: This experiment aims to investigate the analgesic effect of test compounds on streptozotocin (STZ)-induced peripheral neuropathic pain (DPNP) in diabetic rat models and the brain-blood distribution of the compounds associated with the efficacy, via single oral gavage (ig.) administration.
After successful modeling, the baseline plantar pain threshold of the rats was tested using the Von Frey (UP-Down method) as the baseline pain threshold before administration, and the rats were evenly grouped according to their pain thresholds. The groups included a blank control group, a model group, a positive control group (1 mg/kg), a Compound 26 (0.5 mg/kg) group, and a Compound 26 (1 mg/kg) group. The next day, the rats were administered the vehicle or corresponding drugs. At 2 h, 3 h, 4 h, 5 h, and 6 h after administration, the pain threshold of the plantar region on the affected side of rats was determined using Von Frey filaments to calculate the pain threshold improvement rate of the test compounds against neuropathic pain in diabetic rats, and to observe the time-effect relationship. After the experiment, rats from groups G3-G5 (numbers 1-3 per group) were sacrificed, and plasma and brain tissue samples were collected for testing.

[5] = target: T2, AAK1 (30-330) protein (Homo sapiens, UniProt Q2M2I8); experiment: AAK1 kinase assay (ADP generated, detected by HPLC); type: biochemical; settings: 3.5 nM AAK1, 22 µM ATP, 25°C, 3 h
T2 construct: (His)6x (N); TEV protease cleavage site (N); made in house; host or cells: Escherichia coli BL21(DE3)
T2 sequence (Q2M2I8 30-330): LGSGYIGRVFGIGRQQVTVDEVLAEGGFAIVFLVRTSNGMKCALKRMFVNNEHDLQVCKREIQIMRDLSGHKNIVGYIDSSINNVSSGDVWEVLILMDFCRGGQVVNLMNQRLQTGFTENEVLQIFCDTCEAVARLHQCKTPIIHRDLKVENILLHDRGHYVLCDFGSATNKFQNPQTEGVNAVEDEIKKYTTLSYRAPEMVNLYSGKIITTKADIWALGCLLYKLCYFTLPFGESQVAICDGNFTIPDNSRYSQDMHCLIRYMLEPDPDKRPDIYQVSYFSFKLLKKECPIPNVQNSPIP
Source text: Experimental objective: The objective of this test example is to test the effect of compounds on AAK1 kinase function.
Background principle: AAK1 phosphorylates the threonine residue in the micro-subunit of AP2 (AP2M1). In this process, ATP provides phosphate groups to generate ADP. Therefore, the activity of AAK1 kinase can be evaluated by detecting the amount of ADP generated.
Expression of AAK1 (30-330) protein: The AAK1 sequence (residues 30-330) was cloned into the pET24N vector with an N-terminal (His)6x tag and a tobacco etch virus (TEV) protease cleavage site. The constructed vector was transformed into Escherichia coli BL21(DE3). When the bacteria were cultured with shaking to reach an OD value of 0.6, 1 mM IPTG was added. […] The bacterial cells were collected and subjected to ultrasonic disruption. The supernatant was obtained by centrifugation, and the protein was purified using Ni-NTA. After dialysis, the concentration and purity of the protein were determined.
The reaction mixture was incubated in a metal bath at 25°C for 3 h. The reaction was terminated by adding 1% SDS, and the amount of ADP generated was detected by HPLC. IC50 values were calculated using GraphPad software.

[6] = male, SD, rat, plasma, po, 3 mg/kg

CC(C)C[C@](C)(N)COc1ccc(-c2c[nH]c3ncc(F)cc23)nc1C(F)F [Compound 26, (S)-1-{[2-(difluoromethyl)-6-(5-fluoro-1H-pyrrolo[2,3-b]pyridin-3-yl)pyridin-3-yl]oxy}-2,4-dimethylpentan-2-amine]
IC50 [1]: 10 to 100 nM | in vivo exposure compared with the positive control ([2]; SD rats, versus BMS-986176): approximately four times | peak concentration (Cmax) compared with the positive control ([2]; SD rats, versus BMS-986176): approximately four times | AUC(0-inf) [2, 6]: 4130 ng·h/mL | AUC(0-t) [2, 6]: 4010 ng·h/mL | Cmax [2, 6]: 325 ng/mL | MRT inf [2, 6]: 10.9 h | MRT last [2, 6]: 8.09 h | Tmax [2, 6]: 3.1 h | half-life [2, 6]: 6.98 h | MWT (g) After modeling ([3]; 0.5 mg/kg group, x±s, n=5): 6.97 ± 2.16 g | Pain threshold improvement rate 2h ([3]; 0.5 mg/kg single ig.): 50.87 | MWT (g) 2h ([3]; 0.5 mg/kg single ig., x±s, n=5): 7.50 ± 2.37 g | Pain threshold improvement rate 3 h ([3]; 0.5 mg/kg single ig.): 54.93 | MWT (g) 3 h ([3]; 0.5 mg/kg single ig., 3 h after administration, x±s, n=5): 9.63 ± 3.40 g | Pain threshold improvement rate 4h ([3]; 0.5 mg/kg single ig.): 35.29 | MWT (g) 4 h ([3]; 0.5 mg/kg single ig., x±s, n=5): 6.23 ± 2.10 g | Pain threshold improvement rate 5 h ([3]; 0.5 mg/kg single ig.): 28.18 | MWT (g) 5 h ([3]; 0.5 mg/kg single ig., x±s, n=5): 5.61 ± 3.00 g | Pain threshold improvement rate 6h ([3]; 0.5 mg/kg single ig.): 24.02 | MWT (g) 6h ([3]; 0.5 mg/kg single ig., x±s, n=5): 4.82 ± 1.07 g | duration of analgesia ([3]; 0.5 mg/kg): ≤ 4 h | MWT (g) After modeling ([3]; 1 mg/kg group, x±s, n=5): 7.28 ± 2.09 g | Pain threshold improvement rate 2h ([3]; 1 mg/kg single ig.): 71.05 | MWT (g) 2h ([3]; 1 mg/kg single ig., x±s, n=5): 12.72 ± 3.12 g | Pain threshold improvement rate 3 h ([3]; 1 mg/kg single ig.): 58.89 | Pain threshold improvement rate 4h ([3]; 1 mg/kg single ig.): 59.53 | MWT (g) 4 h ([3]; 1 mg/kg single ig., x±s, n=5): 9.96 ± 4.93 g | Pain threshold improvement rate 5 h ([3]; 1 mg/kg single ig.): 20.88 | MWT (g) 5 h ([3]; 1 mg/kg single ig., x±s, n=5): 5.10 ± 1.55 g | Pain threshold improvement rate 6h ([3]; 1 mg/kg single ig.): 9.51 | MWT (g) 6h ([3]; 1 mg/kg single ig., x±s, n=5): 4.05 ± 0.66 g | duration of analgesia ([3]; 1 mg/kg): ≤ 4 h | concentration at 6 h ([4]; brain, 0.5 mg/kg): 62.5 ng/mL and 688 ng/g | concentration at 6 h ([4]; brain, 1 mg/kg): 120 ng/mL and 1320 ng/g | Kp at 6 h ([4]; 0.5 mg/kg): 17.9 | Kp at 6 h ([4]; 1 mg/kg): 17.6 | concentration at 6 h ([4]; plasma, 0.5 mg/kg): 38.5 ng/mL | concentration at 6 h ([4]; plasma, 1 mg/kg): 75.3 ng/mL | IC50 [5]: 86.3 nM
